Measurements taken from patent publication US12576094B2, “Combination cannabinoid-phenylethanoid formulation for treatment of inflammation and methods related thereto” (Canole LLC, priority 2019, dated 2026).

Columns and labels:
C-28/I2 chondrocytes = assay: toxicity screen to establish maximum tolerable concentrations in chondrocytes
Excerpt: A clonal derivative of ATCC-certified normal chondrocytes was used for a study to determine cytokine expression. The parent line was originally derived from costal cartilage of an adolescent person. The cell line used is C-28/I2 accession number CVCL_0187. The cells were immortalized via retroviral vector-mediated SV40 Large T antigen expression. Cells were confirmed negative for mycoplasma contamination and genotyped by STR analysis to verify cell identity. This cell line is widely used as a model for studying normal and pathological cartilage repair mechanisms and inflammation.
The cells were cultured at 37° C. with 5% CO2, DMEM/F12 media supplemented with 10% heat-inactivated fetal bovine serum. Antimicrobials were not added to the media. Cells were maintained between 40 and 80% confluency to avoid terminal differentiation. Cells used for the experiments had been passaged no more than ten times prior to each experiment.
A series of pilot studies were performed to design the final full-scale experiment. First, a toxicity screen for each test compound was performed to establish maximum tolerable concentrations in this model system. Second, assays were run to establish the optimal means of inducing a pro-inflammatory state in the cell culture system. Third, conditions were tested to set the most favorable dilution scheme in order to maintain samples within the linear range of detection for each analyte. To establish the test concentrations for each test compound, chondrocytes were treated with a serial dilution of each compound, for 24 and 48 hours under serum free conditions. Oleocanthal or CBD were tested at two-fold dilutions down from a concentration of 50 micromolar (μM).

[1] = tested on: IL-13 production by chondrocytes (C-28/I2); assay: cytokine array of conditioned media from IL1β-stimulated chondrocytes: IL-13; format: cell-based, human; details: Moderate level (2.00 μM) of CBD alone, IL1β 10 ng/ml, 24 hours, no serum, FIG. 2
Excerpt: Antimicrobials were not added to the media.
Three wells were utilized per sample condition.

O=C(O)c1cccnc1 [niacin, niacin/nicotinic acid]
maximum tolerable concentration (C-28/I2 chondrocytes; human, 24 h): 1000 µM

C=C(C)[C@@H]1CCC(C)=C[C@H]1c1c(O)cc(CCCCC)cc1O [CBD, cannabidiol]
maximum tolerable concentration (C-28/I2 chondrocytes; chondrocytes, 24 hours post-treatment, serum free): 6 µM
generated amount of IL13 [1]: greatly reduced

C/C=C(/C=O)[C@@H](CC=O)CC(=O)OCCc1ccc(O)cc1 [oleocanthal]
maximum tolerable concentration (C-28/I2 chondrocytes; human, 24 h): 6 µM
